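Results reflect a 48-hour exposure of cells in 96-well plates to compound at five concentrations. GI50 = concentration required for 50% inhibition of growth.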 The source made the active and inactive calls. Rule as the data show it: active = GI50 up to about 1.1 µM and inactive = higher.
Tests used:
Assay in all cases: NCI tumour cell line growth inhibition, 48 h
[1] = test system: OVCAR-8
[2] = test system: DU-145
[3] = test system: HOP-92
[4] = test system: MDA-N
[5] = test system: MOLT-4
[6] = test system: SK-MEL-2
[7] = test system: TK-10
[8] = test system: A498
[9] = test system: OVCAR-4
[10] = test system: KM12
[11] = test system: UO-31
[12] = test system: MDA-MB-231
[13] = test system: NCI-H23
[14] = test system: 786-0
[15] = test system: SNB-75
[16] = test system: NCI-H460
[17] = test system: SNB-19
[18] = test system: SF-295
[19] = test system: SW-620
[20] = test system: CCRF-CEM
[21] = test system: LOX IMVI
[22] = test system: OVCAR-5
[23] = test system: HCT-116
[24] = test system: SN12C
[25] = test system: EKVX
[26] = test system: HOP-62
[27] = test system: MCF7
[28] = test system: MDA-MB-435
[29] = test system: UACC-257
[30] = test system: NCI/ADR-RES
[31] = test system: ACHN
[32] = test system: M14
[33] = test system: NCI-H522
[34] = test system: PC-3
[35] = test system: HCT-15
[36] = test system: RPMI-8226
[37] = test system: COLO 205
[38] = test system: Malme-3M
[39] = test system: SR
[40] = test system: CAKI-1
[41] = test system: K562
[42] = test system: U-251
[43] = test system: SK-MEL-28
[44] = test system: OVCAR-3
[45] = test system: IGROV-1
[46] = test system: SF-539
[47] = test system: SF-268
[48] = test system: HCC 2998
[49] = test system: RXF 393
[50] = test system: BT-549
[51] = test system: Hs-578T
[52] = test system: SK-MEL-5
[53] = test system: NCI-H226
[54] = test system: HT-29
[55] = test system: A549
[56] = test system: HL-60
[57] = test system: UACC-62
[58] = test system: SK-OV-3

Compound: CC(=O)OCC1OC(n2c(=O)[nH]c(=O)c3sccc32)C(Br)C1OC(C)=O (stereo unspecified)
- GI50 [1]: > 100 µM (inactive)
- GI50 [2]: > 100 µM (inactive)
- GI50 [3]: > 100 µM (inactive)
- GI50 [4]: > 100 µM (inactive)
- GI50 [5]: > 100 µM (inactive)
- GI50 [6]: > 100 µM (inactive)
- GI50 [7]: > 100 µM (inactive)
- GI50 [8]: > 100 µM (inactive)
- GI50 [9]: > 100 µM (inactive)
- GI50 [10]: > 100 µM (inactive)
- GI50 [11]: > 100 µM (inactive)
- GI50 [12]: > 100 µM (inactive)
- GI50 [13]: > 100 µM (inactive)
- GI50 [14]: > 100 µM (inactive)
- GI50 [15]: > 100 µM (inactive)
- GI50 [16]: > 100 µM (inactive)
- GI50 [17]: > 100 µM (inactive)
- GI50 [18]: > 100 µM (inactive)
- GI50 [19]: > 100 µM (inactive)
- GI50 [20]: > 100 µM (inactive)
- GI50 [21]: > 100 µM (inactive)
- GI50 [22]: > 100 µM (inactive)
- GI50 [23]: > 100 µM (inactive)
- GI50 [24]: > 100 µM (inactive)
- GI50 [25]: > 100 µM (inactive)
- GI50 [26]: > 100 µM (inactive)
- GI50 [27]: > 100 µM (inactive)
- GI50 [28]: > 100 µM (inactive)
- GI50 [29]: > 100 µM (inactive)
- GI50 [30]: > 100 µM (inactive)
- GI50 [31]: > 100 µM (inactive)
- GI50 [32]: > 100 µM (inactive)
- GI50 [33]: > 100 µM (inactive)
- GI50 [34]: > 100 µM (inactive)
- GI50 [35]: > 100 µM
- GI50 [36]: > 100 µM (inactive)
- GI50 [37]: > 100 µM (inactive)
- GI50 [38]: > 100 µM (inactive)
- GI50 [39]: > 100 µM (inactive)
- GI50 [40]: > 100 µM (inactive)
- GI50 [41]: > 100 µM (inactive)
- GI50 [42]: > 100 µM (inactive)
- GI50 [43]: > 100 µM (inactive)
- GI50 [44]: > 100 µM (inactive)
- GI50 [45]: > 100 µM (inactive)
- GI50 [46]: > 100 µM (inactive)
- GI50 [47]: > 100 µM (inactive)
- GI50 [48]: > 100 µM (inactive)
- GI50 [49]: > 100 µM (inactive)
- GI50 [50]: > 100 µM (inactive)
- GI50 [51]: > 100 µM (inactive)
- GI50 [52]: > 100 µM (inactive)
- GI50 [53]: > 100 µM (inactive)
- GI50 [54]: > 100 µM (inactive)
- GI50 [55]: > 100 µM (inactive)
- GI50 [56]: > 100 µM (inactive)

Compound: CC(C)=CCC/C(C)=C/CCC1(C)C2COC(=O)C21 (stereo unspecified)
- GI50 [2]: 60.5 µM (inactive)
- GI50 [3]: 18.2 µM (inactive)
- GI50 [4]: 54.7 µM (inactive)
- GI50 [5]: 30.9 µM (inactive)
- GI50 [6]: 70.5 µM (inactive)
- GI50 [7]: > 100 µM (inactive)
- GI50 [8]: > 100 µM (inactive)
- GI50 [9]: 42.8 µM (inactive)
- GI50 [10]: 34.9 µM (inactive)
- GI50 [11]: 43.3 µM (inactive)
- GI50 [12]: > 100 µM (inactive)
- GI50 [13]: 51.3 µM (inactive)
- GI50 [14]: > 100 µM (inactive)
- GI50 [16]: 36.2 µM (inactive)
- GI50 [17]: 82.8 µM (inactive)
- GI50 [18]: 77.4 µM (inactive)
- GI50 [19]: 19.3 µM (inactive)
- GI50 [20]: 26.9 µM (inactive)
- GI50 [21]: 26.7 µM (inactive)
- GI50 [22]: > 100 µM (inactive)
- GI50 [23]: 31.9 µM (inactive)
- GI50 [57]: > 100 µM (inactive)
- GI50 [24]: 77.3 µM (inactive)
- GI50 [25]: 53.2 µM (inactive)
- GI50 [26]: > 100 µM (inactive)
- GI50 [27]: 34.8 µM (inactive)
- GI50 [28]: 65.5 µM (inactive)
- GI50 [29]: > 100 µM (inactive)
- GI50 [31]: > 100 µM (inactive)
- GI50 [33]: 53.2 µM (inactive)
- GI50 [34]: 44.4 µM (inactive)
- GI50 [35]: 57.4 µM
- GI50 [37]: 48.3 µM (inactive)
- GI50 [38]: > 100 µM (inactive)
- GI50 [39]: 37 µM (inactive)
- GI50 [40]: > 100 µM (inactive)
- GI50 [41]: 22.6 µM (inactive)
- GI50 [58]: > 100 µM (inactive)
- GI50 [42]: 66.2 µM (inactive)
- GI50 [43]: 29 µM (inactive)
- GI50 [44]: 37 µM (inactive)
- GI50 [45]: > 100 µM (inactive)
- GI50 [47]: > 100 µM (inactive)
- GI50 [48]: > 100 µM (inactive)
- GI50 [49]: > 100 µM (inactive)
- GI50 [50]: 49.8 µM (inactive)
- GI50 [52]: 20.7 µM (inactive)
- GI50 [53]: > 100 µM (inactive)
- GI50 [54]: 70.8 µM (inactive)
- GI50 [56]: 19.8 µM (inactive)

Reference: ChEMBL document CHEMBL1201862, “PubChem BioAssay data set” (2004)
